These results are taken from US20240158447A1, “PEPTIDES FOR USE IN THE TREATMENT OR PREVENTION OF MYOCARDIAL DAMAGE” (THE UNIVERSITY OF WESTERN AUSTRALIA, priority 2020, published 2024).

Entries after “also recorded” stand apart in the source; their conditions may differ.

Assay [1] has as its system wild type cardiac myocytes. The assay can be described thus: Intracellular calcium (Fura-2) after H2O2 in cardiac myocytes. It is filed as cell-based, mouse. The note with it: 20 min incubation with 0.5-1 μM peptide; 30 μM H2O2 5 min; FIG. 3(a). How it is done: (§1) Adult male C57BL/6J mice were anesthetized with pentobarbitone sodium (240 mg/kg) via intraperitoneal injection prior to excision of the heart. Ventricular myocytes were isolated. Mouse hearts were cannulated onto a Langendorff apparatus via the aorta and perfused retrogradely with Krebs-Henseleit Buffer (KHB) containing (in mM): 120 NaCl, 25 NaHCO3, 4.8 KCl, 2.2 MgSO4, 1.2 NaH2PO4 and 11 glucose (pH=7.35 with O2/CO2 at 37° C.) for 4 min at 37° C. Hearts were then perfused with KHB supplemented with 2.4 mg/ml collagenase B for 3 min, then 8 min perfusion in the presence of 40 μM calcium. […]
(§2) All in vitro studies were performed in freshly isolated myocytes at 37° C. […] Following a 20 min incubation with 0.5-1 μM AID(S)-TAT, AID-TAT, peptide 6 or peptide 7, fluorescent signal of individual myocytes was quantified using Metamorph 6.3 to measure signal intensity of manually traced cell regions. […]
Intracellular calcium was monitored in cardiac myocytes using the fluorescent indicator Fura-2 AM (Fura-2, 1 μM, ex 340/380 nm, em 510 nm, Molecular Probes). […] Fluorescence at 340/380 nm excitation and 510 nm emission were measured at 1 minute intervals with an exposure of 50 ms before and after exposure to 30 μM H2O2 (5 min) and 10 U/ml catalase (5 min). Ratiometric 340/380 nm signal was quantified and reported as a percentage from the baseline pre-treatment average.

In assay [2] the target is T1, L-type Ca^2+ channel β2 subunit (Homo sapiens, UniProt Q08289).
T1 construct: from tissue; host or cells: whole heart (cardiac) lysate
The assay can be described thus: Binding competition assay of variant peptides for the β2 subunit (AID-coated beads, heart lysate, SDS-PAGE). The note with it: competition with bead-bound AID peptide, whole heart lysate, immunoblot densitometry; FIG. 2. How it is done:
The affinity of each of the variant peptides to the β2 subunit was investigated through binding competition assays.
PureProteome™ NHS FlexiBind Magnetic Beads (Cat. #LSKMAGN04, Merck) were used following manufacturer recommendations. Aminohexanoic acid linked AID peptide was bound to the NHS flexibind magnetic beads at a concentration of more than 2 mg/mL to obtain saturation of the beads with peptide. Beads were first primed with an equilibration buffer (1 mM HCL) to prepare them for binding. The Ahx-AID peptide was dissolved in wash/coupling buffer (PBS, pH 7.4) and added to the beads. The beads-AID peptide mixture was left to mix uniformly on a multiplate shaker at a speed of 300 rpm at room temperature for 2 hours. To reduce non-specific binding the beads were incubated in Quench Buffer (100 mM Tris-HCl, 150 mM NaCl, pH 8.0) at room temperature for 1 hour.
The AID-peptide bound beads were split into 5 aliquots for the 5 samples prepared in Table 5. The whole heart lysate added to each of the peptide-bound beads to allow competitive binding for 2 hours at room temperature.
Upon completion, the conjugate was washed in coupling buffer, to remove unbound fraction. SDS sample buffer was added to the beads, with the tubes then heated for 5 minutes at 95° C. The eluted sample stored at −20° C. to be run through sodium dodecyl sulfate-polyacrymalide gel electrophoresis (SDS-PAGE) to determine the binding affinity of each of the variants.
The use of streptavidin dynabeads and biotinylated peptide was developed to improve the binding affinity assays. The peptide was initially biotinylated using EZ-link amine-PEG11-biotin (Spacer arm: 53.2 Å, Thermofisher Scientific, Cat. #26136) which was dissolved in 0.1M MES buffer ((2-N-morpholino)-ethanesulfonic acid) at a concentration of 1 mM. Just prior to the reaction, 0.1M EDC (N-(3-Dimethylaminopropyl)-N′-ethylcarbodiimide hydrochloride) was dissolved in MES buffer. In order to achieve complete biotinylation of the AID peptide, a 50× molar excess of biotin to peptide was required, with the total volumes of each component required shown in Table 6.
Each 78 μL aliquot of the biotinylated peptide shown in […] was enough for 6 reactions, covering the range of concentrations in which the heart lysate was again prepared with varying concentrations of the variant AID peptides according to Table 7.
The 78 μL aliquot of biotinylated AID-peptide was mixed with streptavidin dynabeads (1 mg Dynabeads per every 200 pmol biotinylated peptide) for half an hour at room temperature. The heart lysate ([…]) was incubated with the variant peptides at room temperature for 2 hours. After removing all unbound peptide from the beads, they were mixed with the pre-bound heart lysate for 2 hours at room temperature. The unbound fraction was removed. […]
(In general: Immunoblotting shows a protein as a band on a membrane.)

The test system of assay [3] is wild type cardiac myocytes. The assay can be described thus: Intracellular superoxide (DHE) after H2O2 in cardiac myocytes. It is filed as cell-based, mouse. The note with it: 20 min incubation with 0.5-1 μM peptide; 30 μM H2O2 5 min; FIG. 3(b). How it is done: as §1, with “calcium. Following perfusion, aorta and atria were removed, and ventricles gently teased apart and triturated to dissociate myocytes into suspension.” for “calcium.”
as §2
Superoxide generation was assessed in cardiac myocytes using the fluorescent indicator dihydroethidium (DHE, 5 μM, 515-560 nm ex filter, 590 long pass em, Merck). […] Fluorescence was reported as percentage change in the slope of the signal measured at 20-40 min (treatment) over 1-10 min (pre-treatment).

Assay [4] relates to wildtype cardiac myocytes. The assay can be described thus: Mitochondrial flavoprotein oxidation after BayK(−), wildtype cardiac myocytes (Example 6). It is filed as cell-based, mouse. The note with it: wild type hearts, FIG. 4. Here is the method: as §1, with “calcium. Following perfusion, aorta and atria were removed, and ventricles gently teased apart and triturated to dissociate myocytes into suspension.” for “calcium.”
as §2
Autofluorescence was used to measure flavoprotein oxidation in cardiac myocytes based on previously described methods (480 nm ex, 535 nm em). […] Fluorescence was reported as a percentage from the baseline pre-treatment average.

The subject of assay [5] is myocytes isolated from cTnI-G203S mutant mouse hearts. The assay can be described thus: Mitochondrial flavoprotein oxidation after BayK(−), myocytes from HCM hearts (Example 6). The note with it: FIG. 5. It is filed as cell-based. How it is done: FIG. 5 presents the effect of mutant peptides on flavoprotein oxidation, a measure of metabolic activity and oxygen consumption in myocytes isolated from cTnI-G203S mutant mouse hearts that are hypertrophic.
All in vitro studies were performed in freshly isolated myocytes at 37° C. […] Following a 20 min incubation with 0.5-1 μM AID(S)-TAT, AID-TAT, peptide 6 or peptide 7, fluorescent signal of individual myocytes was quantified using Metamorph 6.3 to measure signal intensity of manually traced cell regions. An equivalent region not containing cells was used for background and was subtracted.
Autofluorescence was used to measure flavoprotein oxidation in cardiac myocytes based on previously described methods (480 nm ex, 535 nm em). Fluorescent images were taken at 1 min intervals with 1 s exposure before and after exposure to L-type Ca2+ channel agonist BayK(−). Fluorescence was reported as a percentage from the baseline pre-treatment average.

T1 sequence (Q08289 whole entry): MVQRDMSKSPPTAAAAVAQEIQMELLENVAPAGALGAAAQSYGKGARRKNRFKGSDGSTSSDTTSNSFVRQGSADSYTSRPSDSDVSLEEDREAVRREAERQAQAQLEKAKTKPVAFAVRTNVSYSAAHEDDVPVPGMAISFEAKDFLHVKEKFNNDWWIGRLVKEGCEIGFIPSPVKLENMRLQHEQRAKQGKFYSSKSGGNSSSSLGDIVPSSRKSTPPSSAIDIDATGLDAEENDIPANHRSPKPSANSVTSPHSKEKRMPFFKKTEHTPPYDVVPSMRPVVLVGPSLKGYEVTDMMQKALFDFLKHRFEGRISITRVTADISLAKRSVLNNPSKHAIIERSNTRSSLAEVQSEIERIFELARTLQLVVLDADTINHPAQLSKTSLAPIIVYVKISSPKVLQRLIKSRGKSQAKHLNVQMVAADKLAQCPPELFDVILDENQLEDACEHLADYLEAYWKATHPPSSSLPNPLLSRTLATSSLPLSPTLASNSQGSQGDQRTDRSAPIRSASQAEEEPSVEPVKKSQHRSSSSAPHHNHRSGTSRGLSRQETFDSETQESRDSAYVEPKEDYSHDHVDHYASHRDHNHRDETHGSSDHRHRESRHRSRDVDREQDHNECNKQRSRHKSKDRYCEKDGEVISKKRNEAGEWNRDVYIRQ

With QQQEEDLKGYLDWITQAE (Variant P7), the “H2O2 induced increase in intracellular Ca2+ (Fura 2)” value in assay [1] is “altered the increase in Fura 2 following H2O2; also recorded: more effective at decreasing H2O2 induced increases in intracellular Ca^2+ (Fura 2) and superoxide production (DHE) than AID-TAT”. In assay [2], the “binding affinity (K0.5) for the target β2 subunit versus the original AID peptide” value is reported as “greater binding affinity (lower K0.5)”. In addition, in assay [3], the “H2O2 induced superoxide production (DHE)” value was “more effective at decreasing H2O2 induced increases in intracellular Ca^2+ (Fura 2) and superoxide production (DHE) than AID-TAT”. Further, the “flavoprotein oxidation in comparison with AID-TAT peptide” value in assay [4] and in assay [5] was “statistically significant reduction in flavoprotein oxidation in comparison with AID-TAT peptide” each time.
